Assay [1] has as its target T1, Human Aryl Hydrocarbon Receptor (AhR) (Homo sapiens, UniProt P35869).
T1 construct: purchased INDIGO Bioscience #1B06001-32; host or cells: AhR Reporter Cell (kit's proprietary reporter cells)
T1 sequence (P35869 11-848): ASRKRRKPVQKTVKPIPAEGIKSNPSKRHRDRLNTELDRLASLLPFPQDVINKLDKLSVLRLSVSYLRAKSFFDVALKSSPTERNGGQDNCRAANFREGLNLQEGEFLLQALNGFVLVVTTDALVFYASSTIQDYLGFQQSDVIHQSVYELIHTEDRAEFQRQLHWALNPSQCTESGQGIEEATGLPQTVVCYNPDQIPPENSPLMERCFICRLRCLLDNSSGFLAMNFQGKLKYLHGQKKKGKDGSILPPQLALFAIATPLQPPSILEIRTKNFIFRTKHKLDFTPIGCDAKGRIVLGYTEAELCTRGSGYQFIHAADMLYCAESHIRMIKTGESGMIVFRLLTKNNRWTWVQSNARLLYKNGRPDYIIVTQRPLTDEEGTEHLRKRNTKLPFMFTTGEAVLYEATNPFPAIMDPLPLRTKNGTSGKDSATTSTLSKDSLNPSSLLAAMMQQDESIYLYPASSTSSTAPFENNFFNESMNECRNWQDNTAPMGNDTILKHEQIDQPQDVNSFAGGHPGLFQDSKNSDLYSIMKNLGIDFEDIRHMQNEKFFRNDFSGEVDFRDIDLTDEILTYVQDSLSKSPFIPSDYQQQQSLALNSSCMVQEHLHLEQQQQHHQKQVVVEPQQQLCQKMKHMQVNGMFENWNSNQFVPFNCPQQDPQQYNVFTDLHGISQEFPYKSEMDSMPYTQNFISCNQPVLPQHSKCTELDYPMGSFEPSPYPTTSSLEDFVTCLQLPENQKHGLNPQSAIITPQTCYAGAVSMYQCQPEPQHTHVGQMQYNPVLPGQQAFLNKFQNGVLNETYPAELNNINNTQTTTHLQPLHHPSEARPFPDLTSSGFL
The assay is described as follows: AHR antagonist reporter assay in human cell line (INDIGO AhR Reporter Assay System, kynurenic acid activated). It is filed as cell-based. Conditions: 200 μM kynurenic acid, 24 hours, luciferase; read-out: AhR Reporter Assay KA Antagonist Mode: IC50. The method in brief:
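AhR reporter cells activated with 200 μM kynurenic acid and exposed to compound dilution series in duplicate for 24 h. Firefly luciferase readout, normalized to positive (literature antagonists or unactivated cells) and negative controls.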

Assay [2] relates to AHR-regulated gene CYP1A1 in human monocytic U937 cell line. The experiment in a line: AHR-regulated CYP1A1 expression in U937 cells (qPCR, kynurenic acid stimulated). The assay is classed as cell-based. Conditions: U-937, 200 μM KA, 16 hours, CYP1A1 vs GAPDH, read-out: Cyp ANATAG mode assay: IC50. Here is the method:
To evaluate the AHR inhibitory activity of the test compounds, quantitative PCR analysis was used to determine expression level of the AHR-regulated gene CYP1A1 in a human monocytic U937 cell line upon stimulation of 200 μM kynurenic acid (KA) in the absence or presence of AHR inhibitor. U937 cells were seeded at a concentration of 5×10^5 cells/well in 200 μL of growth medium in 96-well cell culture microplates. CYP1A1 expression was induced with 200 μM KA (positive control) in the absence or presence of the test compounds for 16 hours. Human U937 cells were typically incubated with eight different concentrations of test compounds (typical dilution: […], 3.2 nM, 16 nM, 80 nM, 400 nM, 2 μM, 10 μM) and analyzed in duplicate on the same cell culture microplate. After stimulation, the media was removed, the cell RNA was isolated using RNeasy Mini Kit (Qiagen, 74104) and reverse-transcribed to cDNA using PrimeScript RT reagent Kit (Perfect Real Time) (TaKaRa, RR037A). Unstimulated cells were used as the negative control. Taqman probes for human CYP1A1 (Hs01054797_g1) and human GAPDH (Hs02786624_g1) were used to analyze fold expression of CYP1A1 of GAPDH.

This is an account of results in patent US20240351988A1, “ARYL HYDROCARBON RECEPTOR MODULATORS AND THEIR USE IN THE TREATMENT OF DISEASES AND DISORDERS” (Allianthera (Suzhou) Biopharmaceutical Co., Ltd., priority 2021, published 2024).

The structures appear in SMILES notation. Where only a bound is given, the exact number is not on record here.

For the compound `C[C@H](NC(=O)c1cc(-c2ccc(C(F)(F)F)cc2)nn(-c2cnn(C)c2)c1=O)C(=O)N(C)C` [Compound 150], the IC50 in assay [1] and in assay [2] was < 100 nM throughout.

In the case of `COC[C@H](C)NC(=O)c1cc(-c2cc3ccccc3cn2)nn(-c2cnn(C)c2)c1=O` [Compound 153], the IC50 in assay [1] and in assay [2] was < 100 nM in each case.

With `COC[C@H](C)NC(=O)c1cc(-n2cc(-c3ccc(Cl)cc3)cn2)nn(-c2cnn(C)c2)c1=O` [Compound 155], the results for the IC50 in assay [1] and in assay [2] were < 100 nM and 100 to 400 nM, respectively.

Regarding `COC[C@H](C)NC(=O)c1cc(-c2ccc(-c3ccc(Cl)cc3)nc2)nn(-c2cnn(C)c2)c1=O` [Compound 156], the half-inhibitory concentration (IC50) in assay [1] and in assay [2] was < 100 nM in each case.

With `C[C@@H](CO)NC(=O)c1cc(-c2ccc(-c3ccc(Cl)cc3)nc2)nn(-c2cnn(C)c2)c1=O` [Compound 157], the IC50 in assay [1] and in assay [2] was < 100 nM throughout.

Consider `C[C@@H](CO)NC(=O)c1cc(-n2cc(-c3ccc(Cl)cc3)cn2)nn(-c2cnn(C)c2)c1=O` [Compound 161], for which the IC50 in assay [1] and in assay [2] was < 100 nM each time.

For the compound `C[C@@H](CO)NC(=O)c1cc(-c2cnc(-c3ccc(Cl)cc3)nc2)nn(-c2cnn(C)c2)c1=O` [Compound 163], the IC50 in assay [1] and in assay [2] was < 100 nM in each case.

Take `CN1CCCC[C@H](NC(=O)c2cc(-c3ccc(C(F)(F)F)cc3)nn(-c3cnn(C)c3)c2=O)C1=O` [Compound 164]: the IC50 in assay [1] and in assay [2] was < 100 nM each time.

As to `CN1CCCC[C@H](NC(=O)c2cc(-c3ccc(OC(F)(F)F)cc3)nn(-c3cnn(C)c3)c2=O)C1=O` [Compound 165], the IC50 in assay [1] and in assay [2] was < 100 nM in each case.

For `CN(C)C(=O)C(C)(C)NC(=O)c1cc(-c2ccc(C(F)(F)F)cc2)nn(-c2cnn(C)c2)c1=O` [Compound 167], the IC50 in assay [1] and in assay [2] was < 100 nM each time.

Take `CN(C)C(=O)C(C)(C)NC(=O)c1cc(-c2ccc(OC(F)(F)F)cc2)nn(-c2cnn(C)c2)c1=O` [Compound 168]: the IC50 is < 100 nM in assay [1] and 100 to 400 nM in assay [2].

As for `CNC(=O)[C@H](C)NC(=O)c1cc(-c2ccc(C(F)(F)F)cc2)nn(-c2cnn(C)c2)c1=O` [Compound 169], the IC50 in assay [1] and in assay [2] was < 100 nM in each case.

`CNC(=O)[C@H](C)NC(=O)c1cc(-c2ccc(OC(F)(F)F)cc2)nn(-c2cnn(C)c2)c1=O` [Compound 170]: the IC50 in assay [1] and in assay [2] was < 100 nM in each case.

In the case of `CNC(=O)[C@H](C)NC(=O)c1cc(-c2ccc(-c3ccc(Cl)cc3)cc2)nn(-c2cnn(C)c2)c1=O` [Compound 171], the IC50 in assay [1] and in assay [2] was < 100 nM throughout.

`CN1CCCC[C@H](NC(=O)c2cc(-c3ccc(C(F)(F)F)nc3)nn(-c3cnn(C)c3)c2=O)C1=O` [Compound 172]: the IC50 in assay [1] and in assay [2] was < 100 nM each time.

`CNC(=O)C(C)(C)NC(=O)c1cc(-c2ccc(C(F)(F)F)cc2)nn(-c2cnn(C)c2)c1=O` [Compound 173]: the IC50 in assay [1] and in assay [2] was < 100 nM each time.

In the case of `Cc1nn(C)c2cc(-c3cc(C(=O)N[C@@H](C)CO)c(=O)n(-c4cnn(C)c4)n3)ccc12` [Compound 175], the IC50 in assay [1] is < 100 nM; in assay [2], 100 to 400 nM.

`Cc1nn(C)c2cc(-c3cc(C(=O)N[C@@H](C)C(=O)N(C)C)c(=O)n(-c4cnn(C)c4)n3)ccc12` [Compound 176]: the IC50 in assay [1] is < 100 nM; in assay [2], 100 to 400 nM.

Take `C[C@H](NC(=O)c1cc(-c2ccc(-c3ccc(Cl)cc3)nc2)nn(-c2cnn(C)c2)c1=O)C(=O)N(C)C` [Compound 177]: the IC50 in assay [1] and in assay [2] was < 100 nM in each case.

On to `CNC(=O)[C@H](C)NC(=O)c1cc(-c2cnc(-c3ccc(Cl)cc3)nc2)nn(-c2cnn(C)c2)c1=O` [Compound 181], for which the IC50 was < 100 nM in assay [1] and 100 to 400 nM in assay [2].

With `CNC(=O)[C@H](C)NC(=O)c1cc(-c2ccc(-c3ccc(Cl)cc3)nc2)nn(-c2cnn(C)c2)c1=O` [Compound 183], the IC50 in assay [1] and in assay [2] was < 100 nM throughout.

Turning to `C[C@@H](CO)NC(=O)c1cc(-c2ccc(-c3ccccc3)nc2)nn(-c2cnn(C)c2)c1=O` [Compound 185], the IC50 in assay [1] and in assay [2] was < 100 nM in each case.

`C[C@@H](CO)NC(=O)c1cc(-c2cnc(-c3ccc(F)cc3)nc2)nn(-c2cnn(C)c2)c1=O` [Compound 186]: the IC50 in assay [1] and in assay [2] was < 100 nM throughout.

Consider `C[C@@H](CO)NC(=O)c1cc(-c2ccc(-c3cccc(F)c3)nc2)nn(-c2cnn(C)c2)c1=O` [Compound 191], for which the IC50 in assay [1] and in assay [2] was < 100 nM throughout.

Turning to `C[C@@H](CO)NC(=O)c1cc(-c2ccc(-c3ccccc3F)nc2)nn(-c2cnn(C)c2)c1=O` [Compound 192], the IC50 in assay [1] and in assay [2] was < 100 nM each time.

Take `C[C@@H](CO)NC(=O)c1cc(-c2cnc(-c3cccc(F)c3)nc2)nn(-c2cnn(C)c2)c1=O` [Compound 193]: the IC50 in assay [1] and in assay [2] was < 100 nM each time.

Regarding `C[C@@H](CO)NC(=O)c1cc(-c2cnc(-c3ccccc3F)nc2)nn(-c2cnn(C)c2)c1=O` [Compound 194], the IC50 in assay [1] and in assay [2] was < 100 nM each time.

For `C[C@@H](CO)NC(=O)c1cc(-c2ccc(-c3ccc(F)nc3)nc2)nn(-c2cnn(C)c2)c1=O` [Compound 195], the IC50 in assay [1] and in assay [2] was < 100 nM throughout.

Take `C[C@@H](CO)NC(=O)c1cc(-c2ccc(C3CCOCC3)cc2)nn(-c2cnn(C)c2)c1=O` [Compound 197]: the IC50 in assay [1] and in assay [2] was 100 to 400 nM in each case.

Take `C[C@@H](CO)NC(=O)c1cc(-c2ccc(C3CCCCC3)cc2)nn(-c2cnn(C)c2)c1=O` [Compound 198]: the IC50 in assay [1] and in assay [2] was < 100 nM each time.

As for `C[C@@H](CO)NC(=O)c1cc(-c2cnc(-c3ccc(F)cc3)nc2)nc(-c2cnn(C)c2)n1` [Compound 199], the IC50 in assay [1] and in assay [2] was < 100 nM throughout.

Regarding `C[C@@H](CO)n1cnc2c(-c3cnn(C)c3)nc(-c3cnc(-c4ccc(F)cc4)nc3)cc2c1=O` [Compound 200], the IC50 in assay [1] and in assay [2] was < 100 nM in each case.

Turning to `CCc1ccc(-c2cc(C(=O)N[C@@H](C)CO)c(=O)n(-c3cnn(C)c3)n2)cc1` [Compound 201], the IC50 in assay [1] and in assay [2] was < 100 nM each time.

Take `CC(C)c1ccc(-c2cc(C(=O)N[C@@H](C)CO)c(=O)n(-c3cnn(C)c3)n2)cc1` [Compound 202]: the IC50 in assay [1] and in assay [2] was < 100 nM each time.

On to `C[C@@H](CO)NC(=O)c1cc(-c2ccc(C(C)(C)C)cc2)nn(-c2cnn(C)c2)c1=O` [Compound 203], for which the 50% inhibitory concentration (IC50) in assay [1] and in assay [2] was < 100 nM throughout.

As to `CCc1ccc(-c2cc(C(=O)N[C@@H](C)COC)c(=O)n(-c3cnn(C)c3)n2)cc1` [Compound 204], the half-maximal inhibitory concentration (IC50) in assay [1] is 100 to 400 nM; in assay [2], < 100 nM.

For the compound `COC[C@H](C)NC(=O)c1cc(-c2ccc(C(C)C)cc2)nn(-c2cnn(C)c2)c1=O` [Compound 206], the IC50 in assay [1] and in assay [2] was < 100 nM each time.

In the case of `C[C@@H](CO)NC(=O)c1cc(N2CCC(c3ccc(F)cc3)CC2)nn(-c2cnn(C)c2)c1=O` [Compound 207], the IC50 in assay [1] was > 400 nM; in assay [2], 100 to 400 nM.

Turning to `C[C@@H](CO)NC(=O)c1cc(N2CCN(c3ccc(F)cc3)CC2)nn(-c2cnn(C)c2)c1=O` [Compound 208], the IC50 in assay [1] and in assay [2] was < 100 nM each time.
